Test results published in US10294202B2, “Pyrrolidinones as herbicides” (FMC Corporation, priority 2013, dated 2019).
Where two headings read alike, the source gives them in different places.

What was measured:
velvetleaf = assay: Test A pre-/postemergence herbicide test; assay type: in vivo, Abutilon theophrasti; conditions: for Velvetleaf plant response rating: Preemergence, visual rating on 0 to 100 scale (0 no effect, 100 complete control)
How it was run: (§1)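 Scoring was visual, relative to untreated controls, on a 0–100 scale after about 10 greenhouse days. Preemergence treatment used a directed soil spray over seeded loam/sand; postemergence treatment targeted one- to two-leaf plants of 2–10 cm.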

morningglory = assay: Test A pre-/postemergence herbicide test; assay type: in vivo, Ipomoea spp.; conditions: for Morningglory plant response rating: Preemergence, visual rating on 0 to 100 scale (0 no effect, 100 complete control)
How it was run: as §1

crabgrass, large = assay: Test A pre-/postemergence herbicide test; assay type: in vivo, Digitaria sanguinalis; conditions: for Crabgrass, Large plant response rating: Preemergence, visual rating on 0 to 100 scale (0 no effect, 100 complete control); for pest or weed control at 125 g/ha / pest or weed control at 500 g/ha: Digitaria sanguinalis, 240 h, read-out: Plant response rating, Crabgrass, Large
How it was run: as §1

ragweed = assay: Test A pre-/postemergence herbicide test; assay type: in vivo, Ambrosia elatior
How it was run: as §1

ryegrass, Italian = assay: Test A pre-/postemergence herbicide test; assay type: in vivo, Lolium multiflorum
How it was run: as §1

galium = assay: Test A postemergence herbicide test; assay type: in vivo, Galium aparine
How it was run: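 Plants at the one- to two-leaf stage, 2–10 cm tall, grown in loam/sand pots, received postemergence sprays of the test chemicals. After about 10 days in the greenhouse, injury was scored visually against untreated controls on a 0–100 scale (0 none, 100 complete control).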

ducksalad = assay: Test C flooded paddy test; assay type: in vivo, Heteranthera limosa; conditions: Flood
How it was run: (§2)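 2-leaf stage; flood 3 cm over soil; compound into paddy water; depth held; greenhouse 13–15 d; visual % control vs untreated (0 = none, 100 = complete); "-" = not tested.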

sedge, umbrella = assay: Test C flooded paddy test; assay type: in vivo, Cyperus difformis; conditions: Flood
How it was run: as §2

rice = assay: Test C flooded paddy test; assay type: in vivo, Oryza sativa; conditions: Flood
How it was run: as §2

barnyardgrass = assay: Test C flooded paddy test; assay type: in vivo, Echinochloa crus-galli; conditions: Flood
How it was run: as §2

[1] = Postemergence, 500 g ai/ha, 0 to 100 scale (0 no effect, 100 complete control)
[2] = preemergence, 500 g ai/ha, 0 to 100 scale
[3] = Postemergence, 125 g ai/ha, 0 to 100 scale, 0 no effect, 100 complete control
[4] = Postemergence, 125 g ai/ha, visual rating on 0 to 100 scale (0 no effect, 100 complete control), approx. 10 days
[5] = Preemergence, 125 g ai/ha, 0 to 100 scale where 0 is no effect and 100 is complete control
[6] = Preemergence, 500 g ai/ha, visual rating on 0 to 100 scale (0 no effect, 100 complete control)
[7] = Abutilon theophrasti, post-emergence, 240 h, Postemergence, 500 g ai/ha, 0 to 100 scale (0 no effect, 100 complete control), read-out: Plant response rating, Velvetleaf
[8] = Abutilon theophrasti, pre-emergence, 240 h, preemergence, 500 g ai/ha, 0 to 100 scale, read-out: Plant response rating, Velvetleaf
[9] = 31 g ai/ha, scale of 0 to 100 where 0 is no effect and 100 is complete control, 13 to 15 days
[10] = 62 g ai/ha, scale of 0 to 100 where 0 is no effect and 100 is complete control, 13 to 15 days
[11] = 125 g ai/ha, scale of 0 to 100 where 0 is no effect and 100 is complete control, 13 to 15 days
[12] = Ipomoea, post-emergence, 240 h, Postemergence, 500 g ai/ha, 0 to 100 scale (0 no effect, 100 complete control), read-out: Plant response rating, Morningglory
[13] = Ipomoea, pre-emergence, 240 h, preemergence, 500 g ai/ha, 0 to 100 scale, read-out: Plant response rating, Morningglory
[14] = post-emergence, Postemergence, 125 g ai/ha, 0 to 100 scale, 0 no effect, 100 complete control
[15] = post-emergence, Postemergence, 500 g ai/ha, 0 to 100 scale (0 no effect, 100 complete control)
[16] = pre-emergence, preemergence, 500 g ai/ha, 0 to 100 scale

| SMILES | Plant response rating, Velvetleaf (velvetleaf; [1]) | Velvetleaf plant response rating (velvetleaf; 125 g ai/ha) | Plant response rating, Velvetleaf (velvetleaf; [2]) | Plant response rating, Morningglory (morningglory; [1]) | Morningglory plant response rating (morningglory; 125 g ai/ha) | Plant response rating, Morningglory (morningglory; [2]) | Plant response rating, Crabgrass, Large (crabgrass, large; [3]) | Plant response rating, Crabgrass, Large (crabgrass, large; [1]) | Crabgrass, Large plant response rating (crabgrass, large; 125 g ai/ha) | Plant response rating, Crabgrass, Large (crabgrass, large; [2]) | pest or weed control at 500 g/ha (velvetleaf; [7]) [%] | pest or weed control at 500 g/ha (velvetleaf; [8]) [%] | Plant response rating, Ducksalad (ducksalad; [10]) | Plant response rating, Ducksalad (ducksalad; [11]) | Plant response rating, Ducksalad (ducksalad; 250 g ai/ha, scale 0 to 100) | pest or weed control at 500 g/ha (morningglory; [12]) [%] | pest or weed control at 500 g/ha (morningglory; [13]) [%] | Plant response rating, Sedge, Umbrella (sedge, umbrella; [10]) | Plant response rating, Sedge, Umbrella (sedge, umbrella; [11]) | Plant response rating, Sedge, Umbrella (sedge, umbrella; 250 g ai/ha, scale 0 to 100) | also measured |
| --- | --- | --- | --- | --- | --- | --- | --- | --- | --- | --- | --- | --- | --- | --- | --- | --- | --- | --- | --- | --- | --- |
| O=C1NCC(c2ccc(F)c(F)c2)C1C(=O)Nc1ccccc1C(F)(F)F (racemic) [Compound 6] | 10 | 0 | 0 | 0 | 0 | 0 | 60 | 80 | 80 | 90 |  |  |  |  |  |  |  |  |  |  |  |
| O=C1NCC(c2cccc(OC(F)(F)F)c2)C1C(=O)Nc1ccccc1F (stereo not shown) [Compound 69] | 30 | 0 | 0 | 0 | 0 | 0 | 70 | 90 | 90 | 90 |  |  |  |  |  |  |  |  |  |  | Plant response rating, Velvetleaf (velvetleaf; [3]): 20; Plant response rating, Morningglory (morningglory; [3]): 0 |
| CN1CC(c2cccc(C(F)(F)F)c2)C(C(=O)Nc2cccc(F)c2F)C1=O (stereo not shown) [Compound 305] |  |  |  |  |  |  |  |  |  |  |  |  |  |  |  |  |  |  |  |  | Plant response rating, Ragweed (ragweed; [4]): 0; Plant response rating, Ragweed (ragweed; [1]): 0; Plant response rating, Ragweed (ragweed; [5]): 30; Ragweed plant response rating (ragweed; [6]): 50; Plant response rating, Ryegrass, Italian (ryegrass, Italian; [4]): 60; Plant response rating, Ryegrass, Italian (ryegrass, Italian; [1]): 70; Plant response rating, Ryegrass, Italian (ryegrass, Italian; [5]): 70; Ryegrass, Italian plant response rating (ryegrass, Italian; [6]): 90; Plant response rating, Galium (galium; 125 g ai/ha, visual rating on 0 to 100 scale (0 no effect, 100 complete control), approx. 10 days): 50; Plant response rating, Galium (galium; 500 g ai/ha, 0 to 100 scale (0 no effect, 100 complete control)): 70 |
| O=C1NCC(c2ccccc2)C1(Br)C(=O)Nc1ccccc1F (stereo not shown) [Compound 93, 3-bromo-N-(2-fluorophenyl)-2-oxo-4-phenyl-3-pyrrolidinecarboxamide] |  | 0 |  |  | 0 |  |  |  | 90 |  | 0 | 0 | 0 | 0 | 85 | 0 | 0 | 0 | 0 | 100 | pest or weed control at 125 g/ha (velvetleaf; Abutilon theophrasti, post-emergence, 240 h, Postemergence, 125 g ai/ha, 0 to 100 scale, 0 no effect, 100 complete control, read-out: Plant response rating, Velvetleaf): 0%; Plant response rating, Ducksalad (ducksalad; [9]): 0; pest or weed control at 125 g/ha (morningglory; Ipomoea, post-emergence, 240 h, Postemergence, 125 g ai/ha, 0 to 100 scale, 0 no effect, 100 complete control, read-out: Plant response rating, Morningglory): 0%; Plant response rating, Sedge, Umbrella (sedge, umbrella; [9]): 0; Plant response rating, Rice (rice; [9]): 10; Plant response rating, Rice (rice; [10]): 20; Plant response rating, Rice (rice; [11]): 20; Plant response rating, Rice (rice; 250 g ai/ha, scale 0 to 100): 30; pest or weed control at 125 g/ha (crabgrass, large; [14]): 50%; pest or weed control at 500 g/ha (crabgrass, large; [15]): 80%; pest or weed control at 500 g/ha (crabgrass, large; [16]): 90%; Plant response rating, Barnyardgrass (barnyardgrass; [9]): 0; Plant response rating, Barnyardgrass (barnyardgrass; [10]): 0; Plant response rating, Barnyardgrass (barnyardgrass; [11]): 0; Plant response rating, Barnyardgrass (barnyardgrass; 250 g ai/ha, scale 0 to 100): 40 |
| O=C1NCCC1C(=O)N(c1ccc(F)c(F)c1)c1ccccc1F (stereo not shown) [Compound 5, N-(3,4-difluorophenyl)-N-(2-fluorophenyl)-2-oxo-3-pyrrolidinecarboxamide] |  | 0 |  |  | 0 |  |  |  | 80 |  | 0 | 0 | 30 | 70 | 80 | 10 | 0 | 0 | 0 | 0 | Plant response rating, Rice (rice; [10]): 0; Plant response rating, Rice (rice; [11]): 0; Plant response rating, Rice (rice; 250 g ai/ha, scale 0 to 100): 0; pest or weed control at 125 g/ha (crabgrass, large; [14]): 70%; pest or weed control at 500 g/ha (crabgrass, large; [15]): 80%; pest or weed control at 500 g/ha (crabgrass, large; [16]): 90%; Plant response rating, Barnyardgrass (barnyardgrass; [10]): 0; Plant response rating, Barnyardgrass (barnyardgrass; [11]): 20; Plant response rating, Barnyardgrass (barnyardgrass; 250 g ai/ha, scale 0 to 100): 55 |
